We go through 8 molecules from ChEMBL document CHEMBL1144269, “Carbonic anhydrase inhibitors. Inhibition of isozymes I, II, IV, V, and IX with anions isosteric and isoelectronic with sulfate, nitrate, and carbonate” (Bioorg Med Chem Lett, 2005).

Targets include Carbonic anhydrase 2 (Homo sapiens, UniProt P00918); Carbonic anhydrase 4 (Homo sapiens, UniProt P22748); Carbonic anhydrase 9 (Homo sapiens, UniProt Q16790); Carbonic anhydrase 1 (Homo sapiens, UniProt P00915).
Assay [1] addresses Carbonic anhydrase 5A, mitochondrial (Homo sapiens, UniProt P35218).

Sequence of Carbonic anhydrase 4 (P22748 whole entry): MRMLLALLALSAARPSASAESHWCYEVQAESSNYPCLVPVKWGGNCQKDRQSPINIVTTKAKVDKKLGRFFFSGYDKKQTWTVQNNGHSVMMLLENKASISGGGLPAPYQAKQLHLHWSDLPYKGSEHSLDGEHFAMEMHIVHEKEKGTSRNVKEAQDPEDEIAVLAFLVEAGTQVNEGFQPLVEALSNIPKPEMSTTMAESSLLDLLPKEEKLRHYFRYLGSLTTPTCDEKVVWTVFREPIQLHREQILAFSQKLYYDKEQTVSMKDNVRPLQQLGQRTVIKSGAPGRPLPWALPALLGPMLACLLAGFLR
Sequence of Carbonic anhydrase 1 (P00915 whole entry): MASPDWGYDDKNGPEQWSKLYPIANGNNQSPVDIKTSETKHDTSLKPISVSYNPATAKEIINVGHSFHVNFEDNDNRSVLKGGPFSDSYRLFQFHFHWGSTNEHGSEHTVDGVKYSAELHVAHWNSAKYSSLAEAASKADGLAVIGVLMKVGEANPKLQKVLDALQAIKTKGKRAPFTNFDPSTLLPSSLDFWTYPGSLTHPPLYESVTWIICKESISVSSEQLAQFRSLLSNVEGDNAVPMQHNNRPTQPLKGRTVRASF
Sequence of Carbonic anhydrase 5A, mitochondrial (P35218 whole entry): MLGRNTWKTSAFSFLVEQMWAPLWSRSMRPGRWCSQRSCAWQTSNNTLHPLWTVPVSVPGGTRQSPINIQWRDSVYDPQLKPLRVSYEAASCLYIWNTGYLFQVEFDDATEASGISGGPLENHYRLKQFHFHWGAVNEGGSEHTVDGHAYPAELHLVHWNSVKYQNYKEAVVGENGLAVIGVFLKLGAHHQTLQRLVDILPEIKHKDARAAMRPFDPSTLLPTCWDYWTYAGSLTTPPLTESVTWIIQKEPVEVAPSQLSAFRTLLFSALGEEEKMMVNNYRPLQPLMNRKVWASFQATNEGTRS

Regarding `[O-][Br+2]([O-])O` [BROMATE], the inhibition constant Ki (as a rule, the dissociation constant of the complex between target and ligand, obtained from inhibition or displacement) on Carbonic anhydrase 2 turned out to be 12 mM; on Carbonic anhydrase 4 it was 128 mM; at Carbonic anhydrase 9, 274 mM; on Carbonic anhydrase 1, 4.79 mM; in assay [1], 11.3 mM.
In the case of `[O-][Cl+3]([O-])([O-])O` [PERCHLORATE], the inhibition constant Ki was 767 mM at Carbonic anhydrase 4, 11.6 mM at Carbonic anhydrase 9, 0.69 mM at Carbonic anhydrase 1 and 13.6 mM in assay [1].
For `[O-][I+3]([O-])([O-])O` [PERIODATE], the Ki is 75.8 mM on Carbonic anhydrase 2; 226 mM on Carbonic anhydrase 4; 30.3 mM at Carbonic anhydrase 9; 14.6 mM at Carbonic anhydrase 1; 15.7 mM in assay [1].
Take `O=S(=O)(O)O` [SULFURIC ACID]: the Ki was found to be 154 mM at Carbonic anhydrase 9 and 680 mM in assay [1].
In assay [1], `O=[N+]([O-])O` [NITRIC ACID] yielded a Ki of 16 mM.
Turning to `[O-][Cl+2]([O-])O` [CHLORATE], the Ki on Carbonic anhydrase 2 is 0.85 mM; at Carbonic anhydrase 4, 64.9 mM; at Carbonic anhydrase 9 it was 147 mM; on Carbonic anhydrase 1 it was 0.54 mM; in assay [1], 7.12 mM.
For `NS(=O)(=O)O` [SULFAMATE], the Ki turned out to be 0.0092 mM at Carbonic anhydrase 9 and 0.12 mM in assay [1].
The corresponding values for `O=C(O)O` [BICARBONATE] are 0.0086 mM and 95 mM.
